This is an account of results in patent US12428427B2, “Methods and compositions for targeting PD-L1” (Aligos Therapeutics, Inc., priority 2021, dated 2025).

Structures are written as SMILES. Bounds are passed on as bounds.

The target in test [1] is PDL1/PD1 (Homo sapiens, UniProt Q9NZQ7). As to the kind of experiment: PDL1/PD1 Binding Assay. Conditions: PDL1-6×His 0.3 nM, PD1-Fc-Avi-Biotin 2.5 nM, Acceptor/Donor beads; read-out: PD-1/PD-L1 PPI IC50. As for the experimental part: Compounds to be tested were serially diluted in DMSO, and further diluted in assay buffer (25 mM Hepes pH 7.4, 150 mM NaCl, 0.005% Tween 20, BSA 0.01%). Diluted compounds were added to the wells with final concentration of DMSO at 1%. PDL1-6×His protein was added to the wells, mixed well with compound. The plates were incubated for 30 min at room temperature. PD1-Fc-Avi-Biotin protein was added to the wells. Final concentration of PDL1 and PD1 protein is 0.3 nM and 2.5 nM, respectively. After a binding time of 30 min at room temperature, Anti-6×His Acceptor beads (final concentration 20 ug/ml) were added to the wells, and the incubation continued for 1 h. Streptavidin Donor beads (final concentration 20 ug/mL) were added at reduced light. The plates were sealed with foil and incubated in the dark for additional 1 h or overnight before reading on an Envision reader. The IC50 values were determined by fitting the curves using a four-parameter equation in Graphpad Prism 8.
PDL1/PD1, sequence (Q9NZQ7 19-238 limits assumed): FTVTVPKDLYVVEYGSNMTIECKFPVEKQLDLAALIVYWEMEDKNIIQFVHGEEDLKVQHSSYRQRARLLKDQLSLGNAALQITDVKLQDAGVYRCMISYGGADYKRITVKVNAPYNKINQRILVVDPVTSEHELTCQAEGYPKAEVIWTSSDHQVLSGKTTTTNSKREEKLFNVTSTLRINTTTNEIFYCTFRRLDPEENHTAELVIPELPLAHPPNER

The target of test [2] is T1, PD-1/PD-L1 interaction (Homo sapiens, UniProt Q9NZQ7).
T1 construct: expressed in transfected cells; Jurkat cells (PD-1 plus NFAT-luciferase)
T1 sequence (Q9NZQ7 19-290): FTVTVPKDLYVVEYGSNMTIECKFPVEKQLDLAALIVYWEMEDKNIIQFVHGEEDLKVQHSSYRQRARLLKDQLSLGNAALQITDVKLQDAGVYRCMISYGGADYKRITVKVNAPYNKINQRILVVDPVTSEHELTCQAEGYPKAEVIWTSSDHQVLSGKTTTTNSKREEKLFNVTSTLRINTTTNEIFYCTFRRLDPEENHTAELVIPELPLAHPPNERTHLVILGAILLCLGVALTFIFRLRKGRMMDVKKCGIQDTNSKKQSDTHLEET
As to the kind of experiment: PD-1/PD-L1 NFAT Reporter Assay. It is filed as cell-based. The note with it: co-culture of PD-L1 expressing CHO cells and PD-1 overexpressing Jurkat cells, 6 hrs, NFAT luciferase. The procedure: Blocking the PD-1/PD-L1 interaction will release the inhibitory signal and results in TCR signaling and NFAT-mediated luciferase activity.
CHO cells expressing surface-bound anti-CD3 antibodies and PD-L1 were first seeded overnight and treated with the compounds. Jurkat cells overexpressing PD-1 and a luciferase construct under NFAT promoter were then immediately seeded on the monolayer of CHO cells. The co-culture was then incubated for 6 hrs at 37° C. Luciferase activity was assessed by adding the ONE-Glo reagent and measuring luminescence with a plate reader. EC50 values were determined from the fit of the dose-response curves.

In the case of `COc1nc(-c2cccc(-c3cccc(NC(=O)c4ccnn(C)c4=O)c3C)c2F)cc(C)c1CNC[C@@H]1CCC(=O)N1` [Compound B-4], in test [1], the IC50 was ≤ 0.01 µM. For the same molecule, the EC50 in test [2] lay in the range of 0.01 to 0.1 µM.

On to `COc1nc(-c2cccc(-c3cccc(NC(=O)c4ccnn(C)c4=O)c3Cl)c2Cl)ccc1CN1CCO[C@H](C(=O)O)C1` [Compound C-44], for which, in test [1], the IC50 was ≤ 0.01 µM. Also, the EC50 in test [2] was in the range of 0.01 to 0.1 µM.

For `COc1nc(-c2cccc(-c3cccc(NC(=O)c4ccnn(C)c4=O)c3Cl)c2Cl)ccc1CNC[C@@H](C)C(=O)O` [Compound C-37], the IC50 in test [1] is ≤ 0.01 µM. The same molecule registered an EC50 in test [2] of 0.01 to 0.1 µM.

With `COc1nc(-c2cccc(-c3cccc(NC(=O)c4ccnn(C)c4=O)c3C)c2Cl)ccc1CN1CC[C@H](C(=O)O)C1` [Compound C-56], the IC50 in test [1] is ≤ 0.01 µM. The EC50 in test [2] lay within 0.01 to 0.1 µM.

For the molecule `COc1nc(-c2cccc(-c3cccc(NC(=O)c4ccnn(C)c4=O)c3Cl)c2Cl)ccc1CN1CC2(C(=O)O)CCC1CC2` [Compound C-27], the IC50 in test [1] is ≤ 0.01 µM. The molecule also registered an EC50 in test [2] of 0.1 to 1 µM.

Consider `COc1nc(-c2cccc(-c3cccc(NC(=O)c4ccnn(C)c4=O)c3Cl)c2Cl)ccc1CN[C@H]1CCC[C@H]1C(=O)O` [Compound C-40], for which the IC50 in test [1] is ≤ 0.01 µM. This molecule also showed a 50% effective concentration (EC50) in test [2] of 0.1 to 1 µM.

`COc1nc(-c2cccc(-c3cccc(NC(=O)c4ccnn(C)c4=O)c3Cl)c2Cl)ccc1CN1CCN(C(=O)OC(C)(C)C)[C@H](C(=O)O)C1` [Compound C-23]: the IC50 in test [1] was ≤ 0.01 µM. Besides, in test [2], the EC50 is > 5 µM.

As to `COc1nc(-c2cccc(-c3cccc(NC(=O)c4ccnn(C)c4=O)c3C)c2Cl)ccc1CN1CC[C@H](O)C1` [Compound C-65], the IC50 in test [1] is ≤ 0.01 µM. Besides, the EC50 in test [2] was ≤ 0.01 µM.

For the molecule `CCOC(=O)N(Cc1ncc(-c2cccc(-c3cccc(NC(=O)c4ccnn(C)c4=O)c3C)c2Cl)nc1OC)C[C@@H]1CCC(=O)N1` [Compound D-2], in test [1], the IC50 lay within 0.01 to 0.1 µM. For the same molecule, the EC50 in test [2] is > 5 µM.

For the molecule `COc1nc(-c2cccc(-c3cccc(NC(=O)c4ccnn(C)c4=O)c3Cl)c2Cl)ccc1CN1CCCC[C@@H]1C(=O)O` [Compound C-11], in test [1], the IC50 was ≤ 0.01 µM. The molecule further returned an EC50 in test [2] of 0.1 to 1 µM.

As for `COc1nc(-c2cccc(-c3cccc(NC(=O)c4ccnn(C)c4=O)c3Cl)c2Cl)ccc1CN1CC(O)(C(=O)O)C1` [Compound C-41], in test [1], the IC50 was ≤ 0.01 µM. In test [2], the EC50 lay within 0.01 to 0.1 µM.

As to `COc1nc(-c2cccc(-c3cccc(NC(=O)c4ccnn(C)c4=O)c3Cl)c2Cl)ccc1CN1CCN(C(=O)OC(C)(C)C)[C@@H](C(=O)O)C1` [Compound C-24], in test [1], the IC50 was ≤ 0.01 µM. The molecule further displayed an EC50 in test [2] of 0.1 to 1 µM.

As to `COc1nc(-c2cccc(-c3cccc(NC(=O)c4ccnn(C)c4=O)c3C)c2Cl)ccc1CN1CC[C@@H](O)C1` [Compound C-67], the IC50 in test [1] was ≤ 0.01 µM. For the same molecule, the EC50 in test [2] was ≤ 0.01 µM.

With `COc1nc(-c2cccc(-c3cccc(NC(=O)c4ccnn(C)c4=O)c3C)c2C)ccc1CNC(C)(C)CO` [Compound C-73], the IC50 in test [1] is ≤ 0.01 µM. In addition, in test [2], the EC50 is > 5 µM.

In the case of `COc1nc(-c2cccc(-c3cccc(NC(=O)c4ccnn(C)c4=O)c3Cl)c2Cl)ccc1CNC[C@@H]1CCC(=O)N1` [Compound B-2], the IC50 in test [1] was ≤ 0.01 µM. Besides, the EC50 in test [2] was 0.01 to 0.1 µM.

With `COc1nc(-c2cccc(-c3cccc(NC(=O)c4ccnn(C)c4=O)c3Cl)c2Cl)ncc1CN[C@@H]1CCOC[C@@H]1O` [Compound C-81], in test [1], the IC50 is ≤ 0.01 µM. The EC50 in test [2] is ≤ 0.01 µM.

Turning to `COC(=O)C1CN(Cc2cc(F)c(-c3cccc(-c4cccc(NC(=O)c5ccnn(C)c5=O)c4Cl)c3Cl)nc2OC)C1` [Compound C-78], the IC50 in test [1] is ≤ 0.01 µM. This molecule came in with an EC50 in test [2] of 0.1 to 1 µM.

Consider `COc1nc(-c2cccc(-c3cccc(NC(=O)c4cc(C)n[nH]c4=O)c3Cl)c2Cl)cnc1CN1CC2(CCC(=O)N2)C1` [Compound A-4], for which, in test [1], the IC50 was ≤ 0.01 µM. Further, in test [2], the EC50 fell in the range of 0.1 to 1 µM.

In the case of `COc1nc(-c2cccc(-c3cccc(NC(=O)c4ccnn(C)c4=O)c3C)c2Cl)ccc1CN1CC(NC(C)=O)C1` [Compound C-63], the IC50 in test [1] was ≤ 0.01 µM. The molecule further had an EC50 in test [2] of 0.01 to 0.1 µM.

Regarding `COc1nc(-c2cccc(-c3cccc(NC(=O)c4ccnn(C)c4=O)c3Cl)c2Cl)ccc1CN1C[C@@H](C(=O)O)C(C)(C)C1` [Compound C-48], in test [1], the IC50 was ≤ 0.01 µM. The EC50 in test [2] lay within 0.1 to 1 µM.

Regarding `COc1nc(-c2cccc(-c3cccc(NC(=O)c4ccnn(C)c4=O)c3C)c2Cl)ccc1CN1CC[C@@H](C(=O)O)C1` [Compound C-58], the IC50 in test [1] is ≤ 0.01 µM. The same molecule showed an EC50 in test [2] of 0.01 to 0.1 µM.

As to `COc1nc(-c2cccc(-c3cccc(NC(=O)c4ccnn(C)c4=O)c3C)c2Cl)ccc1CN1CC(O)C1` [Compound C-66], the IC50 in test [1] is ≤ 0.01 µM. The molecule also yielded an EC50 in test [2] of 0.01 to 0.1 µM.

For `CCOC(=O)[C@H]1CCN(Cc2ccc(-c3cccc(-c4cccc(NC(=O)c5ccnn(C)c5=O)c4C)c3Cl)nc2OC)C1` [Compound C-55], in test [1], the IC50 is ≤ 0.01 µM. This molecule also returned an EC50 in test [2] of 0.01 to 0.1 µM.

Turning to `COc1nc(-c2cccc(-c3cccc(NC(=O)c4ccnn(C)c4=O)c3Cl)c2Cl)ccc1CN[C@@H]1CN(C(C)=O)C[C@H]1O` [Compound C-49], the IC50 in test [1] was ≤ 0.01 µM. Moreover, in test [2], the EC50 fell in the range of 0.01 to 0.1 µM.

For `COc1nc(-c2cccc(-c3cccc(NC(=O)c4ccnn(C)c4=O)c3Cl)c2Cl)ccc1CN1CC[C@@H](C(=O)O)C1` [Compound C-16], in test [1], the IC50 was ≤ 0.01 µM. Further, the half-maximal effective concentration (EC50) in test [2] fell in the range of 0.01 to 0.1 µM.

Turning to `COc1nc(-c2cccc(-c3cccc(NC(=O)c4ccnn(C)c4=O)c3Cl)c2Cl)ccc1CNCC(C)(C)C(=O)O` [Compound C-35], in test [1], the IC50 is ≤ 0.01 µM. The same molecule came in with an EC50 in test [2] of 0.01 to 0.1 µM.

As for `COc1nc(-c2cccc(-c3cccc(NC(=O)c4ccnn(C)c4=O)c3C)c2Cl)cnc1CNC[C@@H]1CCC(=O)N1` [Compound B-5], the IC50 in test [1] was ≤ 0.01 µM. The same molecule yielded an EC50 in test [2] of 0.1 to 1 µM.

Turning to `COc1nc(-c2cccc(-c3cccc(NC(=O)c4ccnn(C)c4=O)c3Cl)c2Cl)ccc1CN1CCC[C@H]1CC(=O)O` [Compound C-34], in test [1], the IC50 was ≤ 0.01 µM. In test [2], this molecule showed an EC50 of 0.01 to 0.1 µM.

In the case of `COc1nc(-c2cccc(-c3cccc(NC(=O)c4ccnn(C)c4=O)c3Cl)c2Cl)ccc1CN1CC[C@H](O)C1` [Compound C-50], the IC50 in test [1] was ≤ 0.01 µM. The 50% effective concentration (EC50) in test [2] was ≤ 0.01 µM.

For the molecule `COc1nc(-c2cccc(-c3cccc(NC(=O)c4ccnn(C)c4=O)c3Cl)c2Cl)ccc1CN[C@@H]1CCOC[C@@H]1O` [Compound C-1], the IC50 in test [1] is ≤ 0.01 µM. Further, in test [2], the EC50 was > 10 µM.

For the molecule `COc1nc(-c2cccc(-c3cccc(NC(=O)c4ccnn(C)c4=O)c3Cl)c2Cl)ccc1CN1CC(O)C1` [Compound C-7], the IC50 in test [1] is ≤ 0.01 µM. Further, the EC50 in test [2] was ≤ 0.01 µM.

For the molecule `COc1nc(-c2cccc(-c3cccc(NC(=O)c4ccnn(C)c4=O)c3C)c2Cl)ccc1CNC[C@@H]1CCC(=O)N1` [Compound B-6], in test [1], the IC50 is ≤ 0.01 µM. Also, the EC50 in test [2] was ≤ 0.01 µM.

In the case of `CCOC(=O)C1CN(Cc2c(C)cc(-c3cccc(-c4cccc(NC(=O)c5ccnn(C)c5=O)c4Cl)c3Cl)nc2OC)C1` [Compound C-89], in test [1], the IC50 is ≤ 0.01 µM. Besides, the concentration for a half-maximal effect (EC50) in test [2] lay within 0.01 to 0.1 µM.

With `COC(=O)C12CCC(CC1)N(Cc1ccc(-c3cccc(-c4cccc(NC(=O)c5ccnn(C)c5=O)c4Cl)c3Cl)nc1OC)C2` [Compound C-22], the IC50 in test [1] was ≤ 0.01 µM. For the same molecule, in test [2], the EC50 was 0.1 to 1 µM.

For `COc1nc(-c2cccc(-c3cccc(NC(=O)c4ccnn(C)c4=O)c3Cl)c2Cl)c(F)cc1CN1CC(C(=O)O)C1` [Compound C-76], the IC50 in test [1] is ≤ 0.01 µM. The molecule also returned an EC50 in test [2] of 0.01 to 0.1 µM.

Turning to `COc1nc(-c2cccc(-c3cccc(NC(=O)c4ccnn(C)c4=O)c3Cl)c2Cl)ccc1CNCCO` [Compound C-2], the IC50 in test [1] is ≤ 0.01 µM. Besides, the EC50 in test [2] is 0.01 to 0.1 µM.

In the case of `COc1nc(-c2cccc(-c3cccc(NC(=O)c4ccnn(C)c4=O)c3Cl)c2Cl)ccc1CNCCCC(=O)O` [Compound C-25], the IC50 in test [1] was ≤ 0.01 µM. In addition, the 50% effective concentration (EC50) in test [2] lay within 0.01 to 0.1 µM.

Regarding `CCOC(=O)C1(C)CN(Cc2ccc(-c3cccc(-c4cccc(NC(=O)c5ccnn(C)c5=O)c4Cl)c3Cl)nc2OC)C1` [Compound C-21], in test [1], the IC50 lay within 0.01 to 0.1 µM. In addition, the EC50 in test [2] is 0.1 to 1 µM.

As for `COc1nc(-c2cccc(-c3cccc(NC(=O)c4ccnn(C)c4=O)c3Cl)c2Cl)ccc1CN[C@](C)(CO)C(=O)O` [Compound C-12], in test [1], the IC50 is ≤ 0.01 µM. This molecule also displayed an EC50 in test [2] of 0.01 to 0.1 µM.

For `CCOC(=O)[C@H]1CCN(Cc2ccc(-c3cccc(-c4cccc(NC(=O)c5ccnn(C)c5=O)c4Cl)c3Cl)nc2OC)C1` [Compound C-15], the IC50 in test [1] was 0.01 to 0.1 µM. In addition, the EC50 in test [2] lay in the range of 0.01 to 0.1 µM.

`COc1nc(-c2cccc(-c3cccc(NC(=O)c4ccnn(C)c4=O)c3Cl)c2Cl)ccc1CN1CCCC[C@H]1C(=O)O` [Compound C-10]: in test [1], the IC50 was ≤ 0.01 µM. Also, the EC50 in test [2] lay within 0.1 to 1 µM.
